Laboratory results as given in US20200187502A1, “MICROBIOCIDAL OXADIAZOLE DERIVATIVES” (SYNGENTA PARTICIPATIONS AG, priority 2017, published 2020).

What was measured:
[1] = system: Puccinia recondita f. Sp. Tritici; test: Fungicidal activity, wheat leaf disc preventative (brown rust); assay type: in vivo; conditions: foliar, 200 ppm in the applied formulation, wheat leaf segments cv. Kanzler, compared to untreated control, 7 to 9 days after application, read-out: disease control
Summary of the method: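 Wheat cv. Kanzler leaf segments on agar were sprayed with formulated compound in water, then inoculated with spores 1 day later. Incubated at 19° C, 75% rh, 12 h light/12 h dark; percent disease control versus untreated scored 7 to 9 days after application.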

[2] = system: Puccinia recondita f. Sp. Tritici; test: Fungicidal activity, wheat leaf disc curative (brown rust); assay type: in vivo; conditions: foliar, 200 ppm in the applied formulation, wheat leaf segments cv. Kanzler, curative (applied 1 day after inoculation), compared to untreated control, 6 to 8 days after application, read-out: disease control
Procedure: Leaf disks or leaf segments of various plant species are cut from plants grown in a greenhouse. The cut leaf disks or segments are placed in multiwell plates (24-well format) onto water agar. The leaf disks are sprayed with a test solution before (preventative) or after (curative) inoculation. Compounds to be tested are prepared as DMSO solutions (max. 10 mg/ml) which are diluted to the appropriate concentration with 0.025% Tween20 just before spraying. The inoculated leaf disks or segments are incubated under defined conditions (temperature, relative humidity, light, etc.) according to the respective test system. A single evaluation of disease level is carried out 3 to 14 days after inoculation, depending on the pathosystem. Percent disease control relative to the untreated check leaf disks or segments is then calculated.
Wheat leaf segments cv. Kanzler are placed on agar in multiwell plates (24-well format). The leaf segments are then inoculated with a spore suspension of the fungus. Plates were stored in darkness at 19° C. and 75% relative humidity. The formulated test compound diluted in water was applied 1 day after inoculation. The leaf segments were incubated at 19° C. and 75% relative humidity under a light regime of 12 hours light/12 hours darkness in a climate cabinet and the activity of a compound was assessed as percent disease control compared to untreated when an appropriate level of disease damage appears in untreated check leaf segments (6 to 8 days after application).
The following compounds at 200 ppm in the applied formulation give at least 80% disease control in this test when compared to untreated control leaf disks under the same conditions, which show extensive disease development.

[3] = system: Glomerella lacenarium (Colletotrichum lacenarium); test: Fungicidal activity, liquid culture, cucumber preventative (anthracnose); assay type: cell-based; conditions: 20 ppm in the applied formulation, liquid culture in PDB, inhibition of growth measured photometrically 3 to 4 days after application, compared to untreated control, read-out: disease control
Summary of the method: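 In liquid culture, cryo-stored conidia in potato dextrose broth were exposed to compound delivered from DMSO solution. Growth inhibition was measured photometrically after 3 to 4 days at 24° C.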

CCN(Cc1ccc(-c2noc(C(F)(F)F)n2)s1)C(=O)N(CC(F)F)C1CC1 [Compound 5.51, 1-cyclopropyl-1-(2,2-difluoroethyl)-3-ethyl-3-[[5-[5-(trifluoromethyl)-1,2,4-oxadiazol-3-yl]-2-thienyl]methyl]urea]
≥ 80%: pest or weed control at 200 ppm [1] | pest or weed control at 200 ppm [2] | inhibition of growth at 20 ppm [3]

CCC(=O)C(=O)N(C)Cc1ccc(-c2noc(C(F)(F)F)n2)s1 [Compound 6.49, N-methyl-2-oxo-N-[[5-[5-(trifluoromethyl)-1,2,4-oxadiazol-3-yl]-2-thienyl]methyl]butanamide]
≥ 80%: pest or weed control at 200 ppm [1] | pest or weed control at 200 ppm [2] | inhibition of growth at 20 ppm [3]

O=C(C1CCOC1)N(Cc1ccc(-c2noc(C(F)(F)F)n2)s1)C1CC1 (stereo not drawn) [Compound 5.37, N-cyclopropyl-N-[[5-[5-(trifluoromethyl)-1,2,4-oxadiazol-3-yl]-2-thienyl]methyl]tetrahydrofuran-3-carboxamide]
≥ 80%: pest or weed control at 200 ppm [1] | pest or weed control at 200 ppm [2] | inhibition of growth at 20 ppm [3]

CN(Cc1ccc(-c2noc(C(F)(F)F)n2)s1)C(=O)C1(C)COC1 [Compound 5.23, N,3-dimethyl-N-[[5-[5-(trifluoromethyl)-1,2,4-oxadiazol-3-yl]-2-thienyl]methyl]oxetane-3-carboxamide]
≥ 80%: pest or weed control at 200 ppm [1] | pest or weed control at 200 ppm [2] | inhibition of growth at 20 ppm [3]

CCC(=O)N(C)Cc1ccc(-c2noc(C(F)(F)F)n2)s1 [Compound 4.36, N-methyl-N-[[5-[5-(trifluoromethyl)-1,2,4-oxadiazol-3-yl]-2-thienyl]methyl]propanamide]
≥ 80%: pest or weed control at 200 ppm [1] | pest or weed control at 200 ppm [2] | inhibition of growth at 20 ppm [3]

CCCC(=O)N(C)Cc1ccc(-c2noc(C(F)(F)F)n2)s1 [Compound 4.34, N-methyl-N-[[5-[5-(trifluoromethyl)-1,2,4-oxadiazol-3-yl]-2-thienyl]methyl]butanamide]
≥ 80%: pest or weed control at 200 ppm [1] | pest or weed control at 200 ppm [2] | inhibition of growth at 20 ppm [3]

CON(C)C(=O)N(Cc1ccc(-c2noc(C(F)(F)F)n2)s1)OC [Compound 1.6, 1,3-dimethoxy-1-methyl-3-[[5-[5-(trifluoromethyl)-1,2,4-oxadiazol-3-yl]-2-thienyl]methyl]urea]
≥ 80%: pest or weed control at 200 ppm [1] | pest or weed control at 200 ppm [2] | inhibition of growth at 20 ppm [3]

CCN(Cc1ccc(-c2noc(C(F)(F)F)n2)s1)C(=O)CNC(C)=O [Compound 4.23, 2-acetamido-N-ethyl-N-[[5-[5-(trifluoromethyl)-1,2,4-oxadiazol-3-yl]-2-thienyl]methyl]acetamide]
≥ 80%: pest or weed control at 200 ppm [1] | pest or weed control at 200 ppm [2] | inhibition of growth at 20 ppm [3]

CC(C)C(=O)N(Cc1ccc(-c2noc(C(F)(F)F)n2)s1)C1CC1 [Compound 4.3, N-cyclopropyl-2-methyl-N-[[5-[5-(trifluoromethyl)-1,2,4-oxadiazol-3-yl]-2-thienyl]methyl]propanamide]
≥ 80%: pest or weed control at 200 ppm [1] | pest or weed control at 200 ppm [2] | inhibition of growth at 20 ppm [3]

CCN(Cc1ccc(-c2noc(C(F)(F)F)n2)s1)C(=O)C(C)OC (stereo not drawn) [Compound 4.6, N-ethyl-2-methoxy-N-[[5-[5-(trifluoromethyl)-1,2,4-oxadiazol-3-yl]-2-thienyl]methyl]propanamide]
≥ 80%: pest or weed control at 200 ppm [1] | pest or weed control at 200 ppm [2] | inhibition of growth at 20 ppm [3]

CC(C)N(Cc1ccc(-c2noc(C(F)(F)F)n2)s1)C(=O)C(N)=O [Compound 6.9, N′-isopropyl-N′-[[5-[5-(trifluoromethyl)-1,2,4-oxadiazol-3-yl]-2-thienyl]methyl]oxamide]
≥ 80%: pest or weed control at 200 ppm [1] | pest or weed control at 200 ppm [2] | inhibition of growth at 20 ppm [3]

CC1CC1C(=O)N(Cc1ccc(-c2noc(C(F)(F)F)n2)s1)C1CC1 (stereo not drawn) [Compound 5.43, N-cyclopropyl-2-methyl-N-[[5-[5-(trifluoromethyl)-1,2,4-oxadiazol-3-yl]-2-thienyl]methyl]cyclopropanecarboxamide]
≥ 80%: pest or weed control at 200 ppm [1] | pest or weed control at 200 ppm [2] | inhibition of growth at 20 ppm [3]

CCN(Cc1ccc(-c2noc(C(F)(F)F)n2)s1)C(=O)C1(C)CC1 [Compound 5.12, N-ethyl-1-methyl-N-[[5-[5-(trifluoromethyl)-1,2,4-oxadiazol-3-yl]-2-thienyl]methyl]cyclopropanecarboxamide]
≥ 80%: pest or weed control at 200 ppm [1] | pest or weed control at 200 ppm [2] | inhibition of growth at 20 ppm [3]

COCCN(CCOC)C(=O)N(Cc1ccc(-c2noc(C(F)(F)F)n2)s1)C1CC1 [Compound 4.91, 1-cyclopropyl-3,3-bis(2-methoxyethyl)-1-[[5-[5-(trifluoromethyl)-1,2,4-oxadiazol-3-yl]-2-thienyl]methyl]urea]
≥ 80%: pest or weed control at 200 ppm [1] | pest or weed control at 200 ppm [2] | inhibition of growth at 20 ppm [3]

CCC(=O)C(=O)N(CC)Cc1ccc(-c2noc(C(F)(F)F)n2)s1 [Compound 6.42, N-ethyl-2-oxo-N-[[5-[5-(trifluoromethyl)-1,2,4-oxadiazol-3-yl]-2-thienyl]methyl]butanamide]
≥ 80%: pest or weed control at 200 ppm [1] | pest or weed control at 200 ppm [2] | inhibition of growth at 20 ppm [3]

CN(Cc1ccc(-c2noc(C(F)(F)F)n2)s1)C(=O)N1CCC2(CC2)C1 [Compound 5.55, N-methyl-N-[[5-[5-(trifluoromethyl)-1,2,4-oxadiazol-3-yl]-2-thienyl]methyl]-5-azaspiro[2.4]heptane-5-carboxamide]
≥ 80%: pest or weed control at 200 ppm [1] | pest or weed control at 200 ppm [2] | inhibition of growth at 20 ppm [3]

O=C(N1CCCO1)N(Cc1ccc(-c2noc(C(F)(F)F)n2)s1)C1CC1 [Compound 5.61, N-cyclopropyl-N-[[5-[5-(trifluoromethyl)-1,2,4-oxadiazol-3-yl]-2-thienyl]methyl]isoxazolidine-2-carboxamide]
≥ 80%: pest or weed control at 200 ppm [1] | pest or weed control at 200 ppm [2] | inhibition of growth at 20 ppm [3]

CCCN(CC1CC1)C(=O)N(Cc1ccc(-c2noc(C(F)(F)F)n2)s1)OC [Compound 1.60, 1-(cyclopropylmethyl)-3-methoxy-1-propyl-3-[[5-[5-(trifluoromethyl)-1,2,4-oxadiazol-3-yl]-2-thienyl]methyl]urea]
≥ 80%: pest or weed control at 200 ppm [1] | pest or weed control at 200 ppm [2] | inhibition of growth at 20 ppm [3]
